The text below walks through data of patent US20260258025A1, “INHIBITORS OF TDP-43 AND TAU AGGREGATION” (Aquinnah Pharmaceuticals, inc., priority 2023, published 2026).

This experiment has as its system tau stress granules. Kind of experiment: SY5Y-tT1 tau arsenite assay (tau stress granules per cell). The experiment is classed as cell-based. As to conditions: SY5Y-tT1 cells, 2 hours compound, 90 minutes arsenite, 50% reduction of granules per cell, read-out: IC50, Inhibitor Activity of Tau Stress Granules. Summed up: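 SY5Y-tT1 cells were tetracycline-induced for 48 h, pretreated 2 h with serially diluted compounds (PERK inhibitor GSK2606414 as control), then exposed to arsenite for 90 min at 37° C. After fixation and Hoechst staining, tau stress granules per cell were imaged; IC50 is the concentration halving granules per cell.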

Regarding `Cc1cc(-c2ccc(C3CCN(C(C)C)CC3)cc2)sc1C(=O)N1CC[C@H](N)C1` [Compound 183, (S)-(3-aminopyrrolidin-1-yl)(5-(4-(1-isopropylpiperidin-4-yl)phenyl)-3-methylthiophen-2-yl)methanone], the half-maximal inhibitory concentration (IC50) was below 500 nM.

A word on the IC50: it is the point on the concentration scale where inhibition reaches its midpoint.
